Source: US9560876B2, “Acylamino acid compounds and food preparations containing same” (Nestec S.A., priority 2008, dated 2017)

Target: human TRPA1 (Homo sapiens, UniProt O75762)
Assay: Intracellular calcium [Ca2+]i flux in HEK 293 cells stably expressing TRPA1 (FLEXstation, Fura-2/AM)
Type: cell-based
Conditions: saturating concentration
Protocol: Cloning and Expression of Human TRPV1 and TRPA1 Receptors in HEK 293 Cells: Cloning and expression of these receptors was performed following previously published protocols. Briefly, cloned human TRPV1 cDNA was obtained from RZPD (Germany) and hTRPA1 cDNA from OriGene (Rockville, Md.). Genes were subcloned into pcDNA5/FRT (Invitrogen, Carlsbad, Calif.) to generate stable cell lines using the Flp-In system (Invitrogen) after sequencing verification.
Measurement of Intracellular Calcium Levels [Ca2+]i and Membrane Potential Variation in HEK 293 Cells Using a Fluorescent Plate Reader: Cell lines stably expressing TRP channels were seeded into 96-well plates previously coated with poly-D-lysine. […] [Ca2+]i fluxes from a homogeneous cell population (approximately 100000 cells) were measured as changes in fluorescence intensity when stimulated with agonists using a FLEXstation (Molecular Devices). […]
Data Analysis: Responses of molecules in HEK 293 cells were expressed as a percentage of maximum responses evoked by 150 μM cinnamaldehyde for TRPA1 and 1 μM capsaicin for TRPV1 (these concentrations were assessed independently to be saturating under these conditions). For all experiments, calcium fluxes were measured as changes in fluorescence intensity, before and after the addition of agonists. […] Data obtained from this study were expressed as mean SEM. […]

human TRPA1, sequence (O75762 whole entry): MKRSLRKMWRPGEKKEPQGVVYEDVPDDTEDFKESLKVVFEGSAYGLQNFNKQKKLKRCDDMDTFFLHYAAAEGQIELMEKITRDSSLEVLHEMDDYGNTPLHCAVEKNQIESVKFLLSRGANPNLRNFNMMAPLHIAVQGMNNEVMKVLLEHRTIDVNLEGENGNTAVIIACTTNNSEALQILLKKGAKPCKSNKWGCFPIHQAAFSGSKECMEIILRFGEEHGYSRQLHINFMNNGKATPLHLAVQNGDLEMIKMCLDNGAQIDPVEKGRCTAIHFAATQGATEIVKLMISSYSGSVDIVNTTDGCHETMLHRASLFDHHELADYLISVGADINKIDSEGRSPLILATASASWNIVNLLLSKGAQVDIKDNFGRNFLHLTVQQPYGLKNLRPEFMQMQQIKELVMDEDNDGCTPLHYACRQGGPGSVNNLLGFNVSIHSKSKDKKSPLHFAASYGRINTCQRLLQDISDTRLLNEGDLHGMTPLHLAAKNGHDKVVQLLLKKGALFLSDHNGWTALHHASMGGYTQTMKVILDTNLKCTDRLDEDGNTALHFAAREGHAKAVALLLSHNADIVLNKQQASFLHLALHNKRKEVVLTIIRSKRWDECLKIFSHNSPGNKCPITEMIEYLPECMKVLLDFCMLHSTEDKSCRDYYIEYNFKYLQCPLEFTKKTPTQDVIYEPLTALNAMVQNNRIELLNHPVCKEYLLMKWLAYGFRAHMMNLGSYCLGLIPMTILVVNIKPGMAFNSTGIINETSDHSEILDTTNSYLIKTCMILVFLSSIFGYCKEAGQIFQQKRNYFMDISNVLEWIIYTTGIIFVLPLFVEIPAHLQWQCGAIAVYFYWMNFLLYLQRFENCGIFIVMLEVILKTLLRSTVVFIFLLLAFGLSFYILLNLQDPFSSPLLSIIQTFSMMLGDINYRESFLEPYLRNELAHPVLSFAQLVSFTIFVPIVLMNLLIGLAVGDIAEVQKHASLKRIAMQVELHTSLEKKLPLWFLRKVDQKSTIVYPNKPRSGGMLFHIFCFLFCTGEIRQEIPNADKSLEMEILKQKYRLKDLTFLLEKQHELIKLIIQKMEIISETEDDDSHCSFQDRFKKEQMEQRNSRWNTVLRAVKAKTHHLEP

For `CCC=CCC=CCC=CCCCCCCCC(=O)NC(C)C(=O)O` (centres unmarked) [K], the “selectivity of activation, TRPA1 versus TRPV1” value (comparison of TRPA1 and TRPV1 activation in HEK 293 cells) was “purely activating TRPA1” and the “maximum activation on TRPA1” value (responses expressed as percentage of maximum response evoked by 150 μM cinnamaldehyde, FIG. 1) was “strong stimulating effect”.
